Key:
[1] = target: T1, association between TLR2 and MyD88 (Mus musculus, UniProt Q9QUN7); test: MyD88 immunoprecipitation / TLR2 western blot in BV-2 microglial cells; type: cell-based; conditions: BV-2 cells, peptides preincubated 1 h, 1 μM fibrillar Aβ1-42 for 1 h, serum-free
T1 construct: disrupt the physical association between endogenous TLR2 and MyD88; endogenous in cells; host or cells: BV-2 microglial cells
Protocol: FIG. 3(A-L). Selective disruption of TLR2 and MyD88 interaction by wtTIDM. In silico analyses of interactions of wtTIDM with TLR1, TLR4, TLR5, TLR6, TLR7, and TLR9. A rigid body interaction analyses were performed in pydock in silico analysis tool. […] G) BV-2 microglial cells preincubated with WtTIDM and mTIDM peptides for 1 h were stimulated with 1 μM fibrillar Aβ1-42 under serum-free condition. After 1 h, cellular extracts were immunoprecipitated with anti-MyD88 antibody followed by western blot of immunoprecipitates for TLR2. As control, cellular extracts were immunoprecipitated with normal IgG. Input was also immunoblotted with TLR2 and MyD88. H) Bands were scanned and values (TLR2/Input) presented as relative to control (n=2 replicates/condition in 3 independent experiments). Results were analyzed by two-sample t-tests. I) BV-2 microglial cells preincubated with wtTIDM and mTIDM peptides for 1 h were stimulated with LPS under serum-free condition. After 1 h, cellular extracts were immunoprecipitated with anti-MyD88 antibody followed by western blot of immunoprecipitates for TLR4. As control, cellular extracts were immunoprecipitated with normal IgG. Input was also immunoblotted with TLR4 and My D88. […] Results were analyzed by two-sample t-tests. […] Results were analyzed by two-sample t-tests.

5×FAD Tg mice [2] = test: Novel object recognition test in 5×FAD Tg mice; type: in vivo, mouse; conditions: vs untreated Tg or mTIDM-treated Tg mice
Excerpt: FIG. 6 (A-N). Intranasal delivery of wtTIDM, but not mTIDM, peptide inhibits neuronal apoptosis in vivo in the hippocampus and improves memory and learning in Tg mice. […] After 30 d of treatment, mice were sacrificed and hippocampal sections were double-labeled for TUNEL & NeuN (A). […] Hippocampal extracts of all groups of mice (n=4) were immunoblotted for cleaved caspase 3 (D). Actin was run as loading control. E) Bands were scanned and values (cleaved caspase 3/Actin) are presented as relative to non-Tg control. […] Protein levels of PSD-95. NR2A and GluR1 were monitored in hippocampal extracts by Western blot (F). Bands were scanned and values (G, PSD-95/Actin; H, NR2A/Actin; I, GluR1/Actin) are presented as relative to non-Tg control. […] Mice were tested for Barnes maze (J, latency; K, number of errors made) and T maze (L, number of positive turns; M, number of negative turns). Short-term memory was also monitored by novel object recognition test, which is represented by discrimination index (N). Eight mice (n=8) were used in each group and results were analyzed by one-way ANOVA.
Novel object recognition task was performed to monitor the short term memory as described by others (58) and us (57). Briefly, during training, mice were placed in a square novel box (20 inches long by 8 inches high) surrounded with infrared sensor. […]

5×FAD Tg mice [3] = test: Glial activation and NF-κB in hippocampus of 5×FAD Tg mice; type: in vivo, mouse; conditions: 0.1 mg/kg body wt/2 d intranasal, 30 d
Excerpt: FIG. 5 (A-Q). […] Actin was run as loading control. […] M) Hippocampal sections were immunolabeled with 82E1 mAb. […] Arrowhead indicates 4 kDa Aβ band.
FIG. 18 (A-B). After intranasal delivery, wtTIDM peptide suppresses the activation of NF-κB in the hippocampus of Tg mice. […] After 30 d of treatment, hippocampal extracts of all groups of mice were immunoblotted for phospho-p65 (A). Actin was run as loading control.
FIG. 19. Intranasal delivery of wtTIDM, but not mTIDM, peptide suppresses microglial expression of iNOS in the hippocampus of Tg mice. […] After 30 d of treatment, mice were sacrificed and hippocampal sections were double-labeled for Iba-1 and iNOS. Results represent analysis of two sections from each of six different mice per group.
(§1) B6SJL-Tg (APPSwFlLon,PSEN1*M146L*L286V) 6799Vas/J transgenic (5×FAD or termed here as Tg) mice were purchased from Jackson Laboratories (Bar Harbor, ME). […] Briefly, TIDM peptides were dissolved in 5 μl normal saline, mice were hold in supine position and saline was delivered into one nostril using a pipetman.
Mice were anesthetized with ketamine-xylazine injectables and perfused with PBS and then with 4% (w/v) paraformaldehyde in PBS followed by dissection of the brain from each mouse for immunofluorescence microscopy (23, 59). […] The samples were mounted and observed under an Olympus IX81 fluorescence microscope. […]

5×FAD Tg mice [4] = test: Tau phosphorylation in hippocampus of 5×FAD Tg mice; type: in vivo, mouse; conditions: 0.1 mg/kg body wt/2 d intranasal, 30 d
Protocol: FIG. 22 (A-B). Intranasal delivery of wtTIDM, but not mTIDM, peptide decreases the phosphorylation of tau in the hippocampus of Tg mice. […] B) Bands were scanned and values (P-Tau/Tau) presented as relative to non-Tg control. Results were analyzed by two-sample t-tests.
as §1

T1 sequence (Q9QUN7 25-784): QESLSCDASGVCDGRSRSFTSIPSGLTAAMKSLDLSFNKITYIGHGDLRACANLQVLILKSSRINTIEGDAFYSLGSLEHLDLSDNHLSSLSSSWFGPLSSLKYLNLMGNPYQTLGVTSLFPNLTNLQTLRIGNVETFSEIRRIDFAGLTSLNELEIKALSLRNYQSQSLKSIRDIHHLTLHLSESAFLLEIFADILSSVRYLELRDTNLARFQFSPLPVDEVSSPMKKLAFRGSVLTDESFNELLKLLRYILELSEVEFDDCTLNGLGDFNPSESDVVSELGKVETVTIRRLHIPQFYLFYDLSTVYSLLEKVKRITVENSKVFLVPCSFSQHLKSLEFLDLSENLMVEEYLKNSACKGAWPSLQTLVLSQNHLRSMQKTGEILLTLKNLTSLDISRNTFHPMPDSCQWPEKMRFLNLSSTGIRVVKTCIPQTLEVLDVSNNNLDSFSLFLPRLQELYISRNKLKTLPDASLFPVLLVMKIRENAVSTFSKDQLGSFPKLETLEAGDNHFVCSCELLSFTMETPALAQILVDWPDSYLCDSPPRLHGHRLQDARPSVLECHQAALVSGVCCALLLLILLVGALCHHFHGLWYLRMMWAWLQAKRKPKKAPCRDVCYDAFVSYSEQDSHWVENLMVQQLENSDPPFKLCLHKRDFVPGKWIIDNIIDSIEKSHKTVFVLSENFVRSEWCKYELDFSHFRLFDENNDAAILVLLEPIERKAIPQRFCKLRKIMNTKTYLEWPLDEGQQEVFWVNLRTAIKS

CC[C@H](C)[C@H](NC(=O)[C@H](CCCCN)NC(=O)[C@@H](NC(=O)[C@H](CCC(N)=O)NC(=O)[C@H](CCCNC(=N)N)NC(=O)[C@@H](N)CC(=O)O)[C@@H](C)CC)C(=O)N[C@@H](Cc1c[nH]c2ccccc12)C(=O)N[C@@H](Cc1ccccc1)C(=O)N[C@@H](CCC(N)=O)C(=O)N[C@@H](CC(N)=O)C(=O)N[C@@H](CCCNC(=N)N)C(=O)N[C@@H](CCCNC(=N)N)C(=O)N[C@@H](CCSC)C(=O)N[C@@H](CCCCN)C(=O)N[C@@H](Cc1c[nH]c2ccccc12)C(=O)N[C@@H](CCCCN)C(=O)N[C@@H](CCCCN)C(=O)N1CCC[C@H]1C(=O)NCC(=O)N[C@@H](C)C(=O)N[C@@H](Cc1c[nH]cn1)C(=O)N[C@@H](CCC(N)=O)C(=O)N[C@@H](CCCCN)C(=O)O [wtTIDM, drqikiwfqnrrmkwkkPGAHQK]
inhibition of fibrillar Aβ1-42-increased association between TLR2 and MyD88 [1]: inhibited | short-term memory, novel object recognition (discrimination index) (5×FAD Tg mice [2]): significant improvement | Iba-1 and phospho-p65 in the hippocampus (5×FAD Tg mice [3]): suppression | expression of iNOS in the hippocampus (5×FAD Tg mice [3]): suppressed | phospho-tau in the hippocampus (5×FAD Tg mice [4]): suppression | total level of tau protein (5×FAD Tg mice [4]): without affecting
